The source made the active and inactive calls. The calls are words filed in the database; no cut-off is given here.
Assays:
[1] = Cell cycle arrest in human KB cells assessed as accumulation at S-phase measured after 12 hrs by propidium iodide staining-based flow cytometry (reference value: 15.5%); type: functional
[2] = Antiproliferative activity against human HT1080 cells measured after 72 hrs by MTT assay; type: functional, cell-based; details: HT-1080, 72 h
[3] = Cell cycle arrest in human KB cells assessed as accumulation at G2/M-phase measured after 48 hrs by propidium iodide staining-based flow cytometry (reference value: 23.36%); type: functional
[4] = Cell cycle arrest in human KB cells assessed as accumulation at G2/M-phase at 0.1 uM measured after 36 hrs by propidium iodide staining-based flow cytometry (reference value: 27.34%); type: functional
[5] = Cell cycle arrest in human KB cells assessed as accumulation at SubG1-phase at 0.2 uM measured after 36 hrs by propidium iodide staining-based flow cytometry (reference value: 0.63%); type: functional
[6] = test system: KB; assay: Inhibition of alpha-tubulin in human KB cells assessed as disruption of microtubule formation at 0.2 uM by DAPI staining-based immunofluorescence assay; type: cell-based
[7] = Cell cycle arrest in human KB cells assessed as accumulation at G0/G1-phase measured after 60 hrs by propidium iodide staining-based flow cytometry (reference value: 63.85%); type: functional
[8] = Cell cycle arrest in human KB cells assessed as accumulation at SubG1-phase at 0.1 uM measured after 60 hrs by propidium iodide staining-based flow cytometry (reference value: 1.24%); type: functional
[9] = Cell cycle arrest in human KB cells assessed as accumulation at SubG1-phase measured after 24 hrs by propidium iodide staining-based flow cytometry (reference value: 0.76%); type: functional
[10] = Cell cycle arrest in human KB cells assessed as accumulation at S-phase at 0.05 uM measured after 36 hrs by propidium iodide staining-based flow cytometry (reference value: 16.51%); type: functional
[11] = Cell cycle arrest in human KB cells assessed as accumulation at S-phase at 0.2 uM measured after 36 hrs by propidium iodide staining-based flow cytometry (reference value: 16.51%); type: functional
[12] = Cell cycle arrest in human KB cells assessed as accumulation at S-phase at 0.05 uM measured after 12 hrs by propidium iodide staining-based flow cytometry (reference value: 15.5%); type: functional
[13] = Cell cycle arrest in human KB cells assessed as accumulation at S-phase at 0.1 uM measured after 60 hrs by propidium iodide staining-based flow cytometry (reference value: 12.66%); type: functional
[14] = Cell cycle arrest in human KB cells assessed as accumulation at G2/M-phase measured after 24 hrs by propidium iodide staining-based flow cytometry (reference value: 28.84%); type: functional
[15] = Cell cycle arrest in human KB cells assessed as accumulation at G2/M-phase at 0.2 uM measured after 60 hrs by propidium iodide staining-based flow cytometry (reference value: 18.9%); type: functional
[16] = Cell cycle arrest in human KB cells assessed as accumulation at G0/G1-phase at 0.05 uM measured after 24 hrs by propidium iodide staining-based flow cytometry (reference value: 48.52%); type: functional
[17] = Cell cycle arrest in human KB cells assessed as accumulation at S-phase at 0.05 uM measured after 48 hrs by propidium iodide staining-based flow cytometry (reference value: 13.32%); type: functional
[18] = Cell cycle arrest in human KB cells assessed as accumulation at G0/G1-phase measured after 36 hrs by propidium iodide staining-based flow cytometry (reference value: 51.51%); type: functional
[19] = Cell cycle arrest in human KB cells assessed as accumulation at G0/G1-phase at 0.2 uM measured after 12 hrs by propidium iodide staining-based flow cytometry (reference value: 48.26%); type: functional
[20] = Cell cycle arrest in human KB cells assessed as accumulation at G0/G1-phase at 0.1 uM measured after 24 hrs by propidium iodide staining-based flow cytometry (reference value: 48.52%); type: functional
[21] = Cell cycle arrest in human KB cells assessed as accumulation at S-phase at 0.1 uM measured after 12 hrs by propidium iodide staining-based flow cytometry (reference value: 15.5%); type: functional
[22] = Cell cycle arrest in human KB cells assessed as accumulation at SubG1-phase at 0.2 uM measured after 60 hrs by propidium iodide staining-based flow cytometry (reference value: 1.24%); type: functional
[23] = Cell cycle arrest in human KB cells assessed as accumulation at S-phase measured after 60 hrs by propidium iodide staining-based flow cytometry (reference value: 12.66%); type: functional
[24] = Cell cycle arrest in human KB cells assessed as accumulation at G0/G1-phase at 0.2 uM measured after 48 hrs by propidium iodide staining-based flow cytometry (reference value: 58.26%); type: functional
[25] = Cell cycle arrest in human KB cells assessed as accumulation at G2/M-phase at 0.05 uM measured after 12 hrs by propidium iodide staining-based flow cytometry (reference value: 30.19%); type: functional
[26] = Cell cycle arrest in human KB cells assessed as accumulation at SubG1-phase at 0.05 uM measured after 36 hrs by propidium iodide staining-based flow cytometry (reference value: 0.63%); type: functional
[27] = Cell cycle arrest in human KB cells assessed as accumulation at G2/M-phase at 0.05 uM measured after 36 hrs by propidium iodide staining-based flow cytometry (reference value: 27.34%); type: functional
[28] = Cell cycle arrest in human KB cells assessed as accumulation at G2/M-phase at 0.1 uM measured after 60 hrs by propidium iodide staining-based flow cytometry (reference value: 18.9%); type: functional
[29] = Cell cycle arrest in human KB cells assessed as accumulation at SubG1-phase measured after 48 hrs by propidium iodide staining-based flow cytometry (reference value: 0.61%); type: functional
[30] = Cell cycle arrest in human KB cells assessed as accumulation at G2/M-phase at 0.05 uM measured after 48 hrs by propidium iodide staining-based flow cytometry (reference value: 23.36%); type: functional
[31] = Cell cycle arrest in human KB cells assessed as accumulation at G2/M-phase at 0.05 uM measured after 60 hrs by propidium iodide staining-based flow cytometry (reference value: 18.9%); type: functional
[32] = Cell cycle arrest in human KB cells assessed as accumulation at G2/M-phase at 0.1 uM measured after 48 hrs by propidium iodide staining-based flow cytometry (reference value: 23.36%); type: functional
[33] = Cell cycle arrest in human KB cells assessed as accumulation at SubG1-phase at 0.1 uM measured after 24 hrs by propidium iodide staining-based flow cytometry (reference value: 0.76%); type: functional
[34] = Cell cycle arrest in human KB cells assessed as accumulation at SubG1-phase at 0.2 uM measured after 12 hrs by propidium iodide staining-based flow cytometry (reference value: 1.23%); type: functional
[35] = Cell cycle arrest in human KB cells assessed as accumulation at S-phase at 0.1 uM measured after 36 hrs by propidium iodide staining-based flow cytometry (reference value: 16.51%); type: functional
[36] = Cell cycle arrest in human KB cells assessed as accumulation at G0/G1-phase measured after 12 hrs by propidium iodide staining-based flow cytometry (reference value: 48.26%); type: functional
[37] = Cell cycle arrest in human KB cells assessed as accumulation at G2/M-phase at 0.1 uM measured after 24 hrs by propidium iodide staining-based flow cytometry (reference value: 28.84%); type: functional

Compound: COc1ccc(-c2ssc(=O)c2-c2cc(OC)c(OC)c(OC)c2)cc1N
- Activity [1]: 21.5%
- IC50 [2]: 147 nM
- Activity [3]: 15.5%
- Activity [4]: 23.7%
- Activity [5]: 33.2%
- Activity [6]: Active
- Activity [7]: 6.81%
- Activity [8]: 57.8%
- Activity [9]: 12.3%
- Activity [10]: 11.7%
- Activity [11]: 15.9%
- Activity [12]: 16.4%
- Activity [13]: 9.61%
- Activity [14]: 52.1%
- Activity [15]: 19.9%
- Activity [16]: 36.7%
- Activity [17]: 10.9%
- Activity [18]: 14.4%
- Activity [19]: 1.63%
- Activity [20]: 13.1%
- Activity [21]: 21.6%
- Activity [22]: 55.3%
- Activity [23]: 6.78%
- Activity [24]: 11.7%
- Activity [25]: 30.5%
- Activity [26]: 10.1%
- Activity [27]: 23%
- Activity [28]: 10%
- Activity [29]: 56.1%
- Activity [30]: 18.5%
- Activity [31]: 14%
- Activity [32]: 22.6%
- Activity [33]: 16%
- Activity [34]: 2.22%
- Activity [35]: 14.5%
- Activity [36]: 8.18%
- Activity [37]: 41.8%
